We go through three compounds from US9580524B2, “Vinylcyclopropane, monomer composition, polymer, polymer composition, and article” (Dexerials Corporation, priority 2014, dated 2017).

Series [1] can be described thus: Polymer dynamic viscoelasticity (DMA, tension mode) of the cured product. The following applies: for Tg (glass-transition temperature): maximum of tan δ, frequency 11.0 Hz. The format is physicochemical. How it is done:
The obtained monomer was homogenized with 0.5 parts by mass of PERHEXA HC (producer: NOF Corporation) and 0.2 mL of acetone added thereto, was subsequently poured into a 10 mm×40 mm×0.5 mm silicone rubber sheet mold prepared on an aluminum plate, and was transferred into a vacuum oven. Acetone solvent was first vaporized while maintaining the temperature at room temperature and the pressure at 20 cmHg to 40 cmHg, and thereafter the pressure was restored to normal pressure and curing was performed for 5 hours at 140° C. to prepare a cured product. The cured product that was prepared was evaluated by measurement as described below using a tension mode of a dynamic mechanical analyzer (DMA).
The cured product was set in the dynamic mechanical analyzer (producer: TA Instruments, product name: RSA3) and the device was used to measure the storage modulus (E′) in a temperature range of from 30° C. to 300° C. with a heating rate of 10.0° C./min. Furthermore, the temperature corresponding to a maximum value of tan δ (loss modulus/storage modulus) obtained under a measurement condition of a frequency of 11.0 Hz was taken to be the glass-transition temperature (Tg).

For series [2] the following is noted: background statement; cited from earlier work.
The nature of series [3]: Polymer heat resistance (thermogravimetric analyzer). The following applies: homopolymer. The format is physicochemical. The procedure: Heat resistance of the polymer used in (i) evaluation of volume change upon polymerization was evaluated using a thermogravimetric analyzer (producer: Seiko Instruments Incorporated, product name: EXSTAR6000). Furthermore, thermogravimetric change of the obtained polymer was measured to obtain a temperature at which a 10% reduction in weight was reached and the 10% weight loss temperature was taken to be the pyrolysis temperature (Td^10).

The nature of series [4]: Volume change upon polymerization (monomer and polymer density by dry automatic pycnometer). The format is physicochemical. The following applies: for Volume change: ((Monomer density)−(Polymer density))/(Monomer density)×100, positive = expansion, negative = shrinkage; for Polymer density: after polymerization; for Polymer density / Monomer density: 25° C.; for Monomer density: prior to polymerization. How it is done:
Volume change relative to monomer volume refers to the change in volume of the polymer relative to the volume of the monomer or monomers that are constituent components of the polymer. This volume change relative to monomer volume is obtained through the following equation by measuring the density of the monomer(s) at 25° C. prior to polymerization (monomer density) and the density of the polymer at 25° C. after polymerization (polymer density). ((Monomer density)−(Polymer density))/(Monomer density)×100(%)
First, polymerization of the obtained monomer (compound represented by structural formula (6)) was performed as follows.
A freezing ampoule (20 mL) was charged with 4.03 mg of AIBN (4 mol %), 440.2 mg (0.61 mmol) of Ad-MVCP, and 0.267 g (0.31 mL) of toluene, and the monomer was dissolved. Thereafter, freeze drying was performed three times and dissolved oxygen was removed. The freezing ampoule was immersed in an oil bath and was heated for 48 hours at 60° C. to polymerize the monomer. After polymerization, the freezing ampoule was cooled by liquid nitrogen to quench radicals. Next, 50 mL of toluene was added to the freezing ampoule in order to dissolve undissolved components other than the polymer and suction filtration was then performed. Polymer filtered onto filter paper as a result was washed with toluene and acetone, was vacuum dried for 48 hours at 100° C., and was collected as a white solid polymer. The collected polymer was used as an evaluation sample.
The volume change upon polymerization was calculated using the following equation by measuring the monomer density and polymer density of each sample prepared by the procedure described above using a dry automatic pycnometer (AccuPyc II 1340 produced by Shimadzu Corporation). ((Monomer density)−(Polymer density))/(Monomer density)×100(%)
A positive calculated value indicates volume expansion whereas a negative calculated value indicates volume shrinkage.
Note that in Comparative Example 3, polymerization of the monomer was performed by bulk polymerization based on the aforementioned document. A freezing ampoule (20 mL) was charged with 15.8 mg (0.096 mmol) of AIBN and 1.000 g (2.41 mmol) of Me-MVCP, and the monomer was dissolved. Thereafter, freeze drying was performed three times and dissolved oxygen was removed. The freezing ampoule was immersed in an oil bath and was heated for 48 hours at 60° C. to polymerize the monomer. After polymerization, the freezing ampoule was cooled by liquid nitrogen to quench radicals. Next, 50 mL of toluene was added to the freezing ampoule in order to dissolve undissolved components other than the polymer and suction filtration was then performed. Polymer filtered onto filter paper as a result was sufficiently washed with toluene and acetone, was vacuum dried for 48 hours while heating at 100° C., and was collected as a white solid polymer. The collected polymer was used as an evaluation sample.
Note that in Example 2, 0.159 g (0.479 mmol) of DCP, 0.341 g (0.479 mmol) of Ad-MVCP, and 0.2 mL of toluene (dehydrated) were added into an ampoule with a stirrer, were heated to 70° C., and were homogenized by stirring. After performing cooling to room temperature, a dilute solution of AIBN (6.3 mg (0.038 mmol) of AIBN dissolved in 0.28 mL of toluene (dehydrated)) was added to the ampoule. The ampoule was sealed using a gas burner after performing freeze degassing of the ampoule. The ampoule was immersed in an oil bath and a reaction was carried out for 48 hours at 60° C. After the reaction, the ampoule was immersed in liquid nitrogen and a polymer was collected. The resultant polymer was sufficiently washed with toluene and acetone and was vacuum dried for 48 hours while heating at 100° C., and a white solid polymer was collected. The collected polymer was used as an evaluation sample.
Ad-MVCP in an amount of 0.153 g (0.215 mmol) and DCP in an amount of 0.072 g (0.216 mmol) were dissolved and homogenized in 0.3 mL of acetone. […]

Series [5] is described as follows: Monomer solubility in various solvents. It is filed as physicochemical. The following applies: 40 mg monomer in 1.0 mL. How it is done: The solubility of 40 mg of the obtained monomer in 1.0 mL of various solvents (methyl ethyl ketone (MEK), acetone, propylene glycol monomethyl ether acetate (PGMEA), and cyclohexanone) was evaluated.

`C=CC1CC1(C(=O)OC12CC3CC(CC(C3)C1)C2)C(=O)OC12CC3CC(CC(C3)C1)C2` (stereo not shown) [Comparative Example 2, 1,1-bis[(1-adamantyloxy)carbonyl]-2-vinylcyclopropane]: the “Tg (glass-transition temperature)” value in series [1] was 23 °C. In addition, the “solubility in solvents such as acetone” value in series [2] was “poor”. For the same compound, the “Td^10 (pyrolysis temperature, 10% weight loss temperature)” value in series [3] came to 361 °C. The Volume change entry in series [4] is “+4.3%”. Besides, in series [4], the Polymer density is 1.127 g/mL. In addition, in series [4], the Monomer density was 1.178 g/mL. The Solubility result in series [5] (Acetone) is “Poor”; in series [5] (Cyclohexanone), “Mediocre”; in series [5] (MEK), “Poor”; in series [5] (PGMEA) it was “Poor”.

Turning to `C=CC1CC1(C(=O)OC12CC3CC(CC(C3)C1)C2)C(=O)OC12CC3CC(C1)CC(OC(=O)C1(C(=O)OC45CC6CC(CC(C6)C4)C5)CC1C=C)(C3)C2` (stereo not shown) [Example 1, 1,3-bis[(1-adamantyloxycarbonyl-2-vinylcyclopropane-1-yl)carbonyloxy]adamantane], the “E′ (storage modulus)” value is on record as 1.10 × 10^9 Pa in series [1] (50° C., 5 hours at 140° C.); 7.40 × 10^8 Pa in series [1] (120° C.); 6.60 × 10^8 Pa in series [1] (140° C.); 7.00 × 10^8 Pa in series [1] (160° C.). The “Tg (glass-transition temperature)” value in series [1] amounted to 235 °C. The “Td^10 (pyrolysis temperature, 10% weight loss temperature)” value in series [3] amounted to 399 °C. Also, the Volume change entry in series [4] is reported as “+6.1%”. The same compound displayed a Polymer density in series [4] of 1.198 g/mL. In series [4], this compound came in with a Monomer density of 1.275 g/mL. For the same compound, the Solubility entry in series [5] (Acetone), in series [5] (Cyclohexanone), in series [5] (MEK) and in series [5] (PGMEA) was “Excellent” throughout.

For the compound “tricyclodecane dimethanol dimethacrylate [Comparative Example 1]”, the “E′ (storage modulus)” value is on record as 1.70 × 10^9 Pa in series [1] (50° C., 5 hours at 140° C.); 9.60 × 10^8 Pa in series [1] (120° C.); 8.00 × 10^8 Pa in series [1] (140° C.); 6.60 × 10^8 Pa in series [1] (160° C.). Besides, in series [1], the “Tg (glass-transition temperature)” value was above 271.1 °C. Moreover, the Volume change in series [4] was −8.5%. The compound further displayed a Polymer density in series [4] of 1.194 g/mL. In addition, the Monomer density in series [4] came to 1.101 g/mL.
